“Also recorded” adds a separate entry of the source. Like-named read-outs stand apart in the source and are kept apart here.
Legend:
[1] = biological target: T1, mushroom tyrosinase (Agaricus bisporus, UniProt C7FF04); experiment: Kinetic analysis of tyrosinase inhibition (Lineweaver-Burk and Dixon plots, diphenolase activity); assay type: biochemical, Agaricusbisporus; details: for Type of inhibition: Lineweaver-Burk plots, oxidation of L-DOPA
T1 construct: purchased Sigma
Protocol: Pre-incubation and measurement time was the same as discussed in mushroom tyrosinase inhibition assay protocol. Formation of DOPAchrome was continuously monitored at 475nm for 5min at a 30s interval in the microplate reader after addition of enzyme.

[2] = biological target: T1, mushroom tyrosinase; experiment: Reversibility of inhibition (remaining enzyme activity versus enzyme concentration); assay type: biochemical, Agaricusbisporus; details: enzyme 2 to 10 μg/mL, L-DOPA, 37°C
Protocol: Assay conditions were same as described in assay protocolexceptthat the final concentration of enzyme was varied (2 to 10 μg/mL).

[3] = Dixon plot, L-DOPA substrate, read-out: Inhibition constant Ki

T1 sequence (C7FF04 2-392): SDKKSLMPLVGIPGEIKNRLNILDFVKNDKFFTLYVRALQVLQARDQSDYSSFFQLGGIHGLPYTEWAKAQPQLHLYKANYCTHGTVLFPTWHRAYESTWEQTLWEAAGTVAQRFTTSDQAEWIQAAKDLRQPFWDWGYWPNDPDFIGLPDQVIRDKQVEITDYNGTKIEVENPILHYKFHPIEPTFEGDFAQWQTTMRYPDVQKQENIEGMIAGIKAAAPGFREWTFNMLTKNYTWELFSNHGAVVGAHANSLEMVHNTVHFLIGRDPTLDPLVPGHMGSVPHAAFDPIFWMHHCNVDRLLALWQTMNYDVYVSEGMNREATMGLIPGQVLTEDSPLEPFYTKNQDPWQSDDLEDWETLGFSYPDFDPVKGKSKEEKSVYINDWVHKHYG

Row | Compound | Ki [1, 3] [µM] | Type of inhibition [1] | Reversibility of enzyme inhibition [2] | Ki [1] [µM]
1 | Cc1ccc(C(C)C)cc1OC(=O)COC(=O)c1ccc(O)cc1O [4c, 2-[2-methyl-5-(propan-2-yl)phenoxy]-2-oxoethyl 2,4-dihydroxybenzoate] | 19 | mixed-type inhibition | reversible inhibitor; also recorded: reversibly | 
2 | Cc1ccc(C(C)C)cc1OC(=O)COC(=O)/C=C/c1ccc(O)cc1 [6b, 2-[2-methyl-5-(propan-2-yl)phenoxy]-2-oxoethyl (2E)-3-(4-hydroxyphenyl)prop-2-enoate] | 10 | mixed-type inhibition | irreversible | 
3 | Cc1ccc(C(C)C)cc1OC(=O)COC(=O)/C=C/c1ccc(O)cc1O [6c, 2-[2-methyl-5-(propan-2-yl)phenoxy]-2-oxoethyl (2E)-3-(2,4-dihydroxyphenyl)prop-2-enoate] |  | non-competitive inhibitor | irreversible; also recorded: irreversibly | 0.05

Reference: paper PMC5441849, “Carvacrol derivatives as mushroom tyrosinase inhibitors; synthesis, kinetics mechanism and molecular docking studies” (PLoS ONE, 2017)
